According to ChEMBL document CHEMBL1126951, “Structure-based design of inhibitors of purine nucleoside phosphorylase. 2. 9-Alicyclic and 9-heteroalicyclic derivatives of 9-deazaguanine” (J Med Chem, 1993):

How the values were obtained:
[1] = target: T1, Purine nucleoside phosphorylase (Bos taurus, UniProt P55859); assay: Inhibition of purine nucleoside phosphorylase from calf spleen in 50 mM phosphate
T1 sequence (P55859 whole entry): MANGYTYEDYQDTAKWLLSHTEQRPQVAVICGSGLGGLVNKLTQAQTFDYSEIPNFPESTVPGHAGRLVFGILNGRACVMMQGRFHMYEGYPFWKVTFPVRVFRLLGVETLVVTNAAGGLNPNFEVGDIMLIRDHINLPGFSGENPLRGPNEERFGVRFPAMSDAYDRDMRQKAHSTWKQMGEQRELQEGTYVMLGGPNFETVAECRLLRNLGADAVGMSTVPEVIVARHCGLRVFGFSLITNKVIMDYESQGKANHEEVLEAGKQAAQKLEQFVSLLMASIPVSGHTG

[2] = target: T1, Purine nucleoside phosphorylase; assay: biochemical
Description: In vitro inhibition of purine nucleoside phosphorylase from calf spleen in 1 mM phosphate

SMILES	IC50 [1] [nM]	IC50 [2] [nM]
Nc1nc2c(CC3CCCO3)c[nH]c2c(=O)[nH]1 (centres undefined)	300	70
Nc1nc2c(CC3CCCCCC3)c[nH]c2c(=O)[nH]1	860	–
Nc1nc(O)c2[nH]cc(C3=CCCCC3)c2n1	19000	1900
Nc1nc(O)c2[nH]cc(CC3CCCSS3)c2n1 (centres undefined)	200	–

Now from value to molecule:

IC50 [1] [nM]	IC50 [2] [nM]	SMILES
150000	6600	Nc1nc(O)c2[nH]c(N)c(CC3CCCCC3)c2n1
1000	1000	Nc1nc2c(CC3CCCNC3)c[nH]c2c(=O)[nH]1 (centres undefined)
150000	–	Nc1nc(O)c2[nH]cc(C3CCCCC3)c2n1
220	11	Nc1nc2c(CC3CCCS3)c[nH]c2c(=O)[nH]1 (centres undefined)
820	–	CC1CCCC(Cc2c[nH]c3c(=O)[nH]c(N)nc23)C1 (centres undefined)
